Laboratory results: US8609836B2, “4-aryl-2-anilino-pyrimidines” (Janssen Pharmaceutica NV, priority 2008, dated 2013)

Legend:
[1] = target: CDK1/CyclinB (h) (Homo sapiens, UniProt P06493); assay: CDK1/CyclinB human kinase inhibition, Invitrogen's FRET assay (Z'lyte); assay type: biochemical; conditions: read-out: CDK1 pIC50 (converted)
How it was run: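 Read-out is the 460 nm/538 nm emission ratio (390 nm excitation) after a 60 min protease development step. Before that, 10 μM ATP and 2 μM Z'lyte Ser/Thr peptide 12 react 60 min at room temperature with 0.2 μg/ml human CDK1/CyclinB in Hepes pH 7.5 containing MgCl2, EGTA and Brij-35.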

[2] = target: PLK3 (h) (Homo sapiens, UniProt Q9H4B4); assay: PLK3 human kinase inhibition, SPA; assay type: biochemical; conditions: read-out: PLK3 pIC50 (converted)
Sequence of PLK3 (h) (Q9H4B4 whole entry): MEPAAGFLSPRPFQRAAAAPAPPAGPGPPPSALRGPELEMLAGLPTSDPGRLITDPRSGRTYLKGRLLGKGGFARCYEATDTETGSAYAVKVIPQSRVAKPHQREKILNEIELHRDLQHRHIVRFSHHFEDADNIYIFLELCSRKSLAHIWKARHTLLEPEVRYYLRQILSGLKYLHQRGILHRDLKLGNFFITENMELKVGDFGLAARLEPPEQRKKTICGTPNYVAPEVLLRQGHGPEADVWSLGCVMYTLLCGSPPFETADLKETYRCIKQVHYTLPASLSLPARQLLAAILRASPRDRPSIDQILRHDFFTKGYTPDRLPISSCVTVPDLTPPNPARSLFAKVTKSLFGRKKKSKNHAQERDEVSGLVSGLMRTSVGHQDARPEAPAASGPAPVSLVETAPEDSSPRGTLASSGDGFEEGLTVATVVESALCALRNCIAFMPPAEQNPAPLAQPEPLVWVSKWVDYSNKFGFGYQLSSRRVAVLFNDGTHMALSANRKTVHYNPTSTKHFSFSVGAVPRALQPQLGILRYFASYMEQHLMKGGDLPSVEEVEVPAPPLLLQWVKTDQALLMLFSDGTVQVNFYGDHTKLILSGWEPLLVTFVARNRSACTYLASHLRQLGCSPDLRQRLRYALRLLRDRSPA
How it was run: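 Radiometric scintillation proximity format at pH 8.0 (Hepes, MnCl2, DTT). The 2 μM biotin-peptide substrate is phosphorylated by PLK3 (h) (30 μg/ml) using 0.1 μM ATP traced with 33P, for 20 min at room temperature. EDTA stop; phosphopeptide captured on streptavidin beads and imaged.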

[3] = system: U87-MG; assay: Cellular proliferation assay (Alamar blue), U87-MG; assay type: cell-based; conditions: Homo sapiens, U-87 MG; 10% FCS; 72 hours with compound; Alamar blue 6 h; read-out: U87-MG (cellular proliferation assay, Table 4) (converted)
How it was run: (§1)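 Growth inhibition measured after 72 h incubation with compound, following 24 h pre-culture at 37° C, 5% CO2 with 10% FCS. Resazurin-based read-out at 544/590 nm after 4 h (HCT-116), 6 h (U87-MG) or 24 h (A2780, MDA-MB-231); results relative to control.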

[4] = system: A2780; assay: Cellular proliferation assay (Alamar blue), A2780; assay type: cell-based; conditions: Homo sapiens, 10% FCS, 72 hours with compound, Alamar blue 24 h, read-out: A2780 (cellular proliferation assay, Table 4) (converted)
How it was run: as §1

Sequence of CDK1/CyclinB (h) (P06493 whole entry): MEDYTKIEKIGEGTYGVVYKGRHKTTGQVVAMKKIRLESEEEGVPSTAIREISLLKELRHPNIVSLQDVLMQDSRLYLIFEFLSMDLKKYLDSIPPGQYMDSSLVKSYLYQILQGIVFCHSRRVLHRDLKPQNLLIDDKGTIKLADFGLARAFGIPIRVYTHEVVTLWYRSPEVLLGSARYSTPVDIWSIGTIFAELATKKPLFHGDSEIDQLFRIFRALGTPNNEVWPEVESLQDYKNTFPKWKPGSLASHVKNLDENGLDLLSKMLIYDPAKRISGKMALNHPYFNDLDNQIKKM
Sequence of CDK1/CyclinB (h) (P14635 whole entry partner): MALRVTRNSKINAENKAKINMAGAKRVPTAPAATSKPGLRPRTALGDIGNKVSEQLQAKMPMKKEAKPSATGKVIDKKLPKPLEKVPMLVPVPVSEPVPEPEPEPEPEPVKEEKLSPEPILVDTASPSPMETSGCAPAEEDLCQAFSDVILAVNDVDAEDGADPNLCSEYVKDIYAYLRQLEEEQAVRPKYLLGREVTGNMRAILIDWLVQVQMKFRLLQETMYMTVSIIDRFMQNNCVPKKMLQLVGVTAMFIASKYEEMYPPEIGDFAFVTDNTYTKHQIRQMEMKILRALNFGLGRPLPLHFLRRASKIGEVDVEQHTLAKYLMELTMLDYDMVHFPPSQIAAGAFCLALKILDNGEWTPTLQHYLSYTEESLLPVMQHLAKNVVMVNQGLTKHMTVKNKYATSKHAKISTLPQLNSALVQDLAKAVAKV

IC50 [1] [µM]	IC50 [2] [µM]	IC50 [3] [µM]	IC50 [4] [µM]	Structure (SMILES)
4.17	> 10	6.76	2.34	O=C1NCc2cccc(c2)-c2ccnc(n2)Nc2ccc(N3CCOCC3)c(c2)CN2CCC[C@@H]12 [Compound 1]
> 10	> 10	> 10	> 10	COc1ccc2cc1CN1CCC(CC1)C(=O)N(C)CCN(C)c1ccc(cn1)-c1ccnc(n1)N2 [Compound 4]
0.195	> 10	0.575	0.195	O=C1NCCOc2ccc(cc2)-c2ccnc(n2)Nc2ccc(N3CCOCC3)c(c2)CN2CCC1CC2 [Compound 6]
3.47	> 10	4.37	> 10	O=C1NCCCOc2ccc(cc2)-c2ccnc(n2)Nc2ccc(N3CCOCC3)c(c2)CN2CCC[C@@H]12 [Compound 7]
> 10	> 10	1.55	> 10	O=C1CN2CCN(CC2)Cc2cc(ccc2N2CCOCC2)Nc2nccc(n2)-c2ccc(cc2)OCCN1 [Compound 9]
> 3.02	> 10	> 10	> 10	COc1ccc2cc1CN1CCN(CC1)CC(=O)N(C)CCN(C)c1ccc(cn1)-c1ccnc(n1)N2 [Compound 14]
0.251	> 10	0.234	0.437	O=C1NCc2cccc(c2)-c2ccnc(n2)Nc2cc(CN3CCOCC3)cc(c2)CN2CCC[C@@H]12 [Compound 22]
> 10	> 10	4.27	5.89	CN(C)C(=O)c1ccc2cc1CN1CCC[C@H]1C(=O)NCc1cccc(c1)-c1ccnc(n1)N2 [Compound 24]
0.676	> 10	0.457	0.708	O=C1NCc2cccc(c2)-c2ccnc(n2)Nc2cc(CNC3CCOCC3)cc(c2)CN2CCC[C@@H]12 [Compound 29]
0.269	> 10	0.145	0.174	CN(C)Cc1cc2cc(c1)Nc1nccc(n1)-c1cccc(c1)CNC(=O)[C@@H]1CCCN1C2 [Compound 30]
0.933	> 10	2.24	5.01	CN(C)CCNCc1cc2cc(c1)Nc1nccc(n1)-c1cccc(c1)CNC(=O)[C@@H]1CCCN1C2 [Compound 31]
0.537	> 10	0.0513	0.224	COCCNCc1cc2cc(c1)Nc1nccc(n1)-c1cccc(c1)CNC(=O)[C@@H]1CCCN1C2 [Compound 33]
0.457	> 10	0.282	0.55	O=C1NCc2cccc(c2)-c2ccnc(n2)Nc2cc(CNC3CCCCC3)cc(c2)CN2CCC[C@@H]12 [Compound 36]
3.09	> 10	2.29	4.68	COCCNC(=O)c1ccc2cc1CN1CCC[C@H]1C(=O)NCc1cccc(c1)-c1ccnc(n1)N2 [Compound 40]
> 10	> 10	2.29	> 10	O=C(NC1CCCCC1)c1ccc2cc1CN1CCC[C@H]1C(=O)NCc1cccc(c1)-c1ccnc(n1)N2 [Compound 41]
~1.35	> 3.02	1.82	1.45	CN(C)CCNC(=O)c1ccc2cc1CN1CCC[C@H]1C(=O)NCc1cccc(c1)-c1ccnc(n1)N2 [Compound 42]
> 10	> 10	> 10	5.5	O=C(NC1CCOCC1)c1ccc2cc1CN1CCC[C@H]1C(=O)NCc1cccc(c1)-c1ccnc(n1)N2 [Compound 46]
> 10	> 10	> 10	> 10	O=C1NCCCc2cc(ccn2)-c2ccnc(n2)Nc2ccc(N3CCOCC3)c(c2)CN2CCCC12 (stereo not shown) [Compound 48]
> 10	> 10	2.57	7.59	CN1CCNC(=O)C2CCN(CC2)Cc2cc(Br)cc(c2)Nc2nccc(n2)-c2ccc(cc2)C1 [Compound 60]
> 10	> 10	5.62	6.31	CC(C)Nc1cc2cc(c1)Nc1nccc(n1)-c1ccc(cc1)CN(C)CCNC(=O)C1CCN(CC1)C2 [Compound 61]
> 10	> 10	7.59	> 10	CN1CCNC(=O)C2CCN(CC2)Cc2cc(cc(N3CCOCC3)c2)Nc2nccc(n2)-c2ccc(cc2)C1 [Compound 68]
> 10	> 10	6.17	> 10	CN1CCCNC(=O)C2CCN(CC2)Cc2cc(cc(N3CCOCC3)c2)Nc2nccc(n2)-c2ccc(cc2)C1 [Compound 72]
> 10	> 10	7.08	> 10	CN1CCCNC(=O)C2CCN(CC2)Cc2cccc(c2)Nc2nccc(n2)-c2ccc(cc2)C1 [Compound 78]
> 10	> 10	> 10	> 10	CN1CCNC(=O)C2CCN(CC2)Cc2cccc(c2)Nc2nccc(n2)-c2ccc(cc2)C1 [Compound 82]

Structure (SMILES)	IC50 [1] [µM]	IC50 [2] [µM]	IC50 [3] [µM]	IC50 [4] [µM]
C[C@@H]1NCc2cc(ccc2N2CCOCC2)Nc2nccc(n2)-c2ccc(cc2)OCCCNC1=O [Compound 5]	> 10	> 10	> 10	> 10
CN1CCCNC(=O)[C@H](CO)NCc2cc(cc(N3CCOCC3)c2)Nc2nccc(n2)-c2ccc(cc2)C1 [Compound 10]	> 10	> 10	> 10	> 10
CN1CCCNC(=O)[C@@H]2CCCN2Cc2cc(cc(N3CCOCC3)c2)Nc2nccc(n2)-c2ccc(cc2)C1 [Compound 16]	> 10	> 10	8.13	9.55
COc1ccc2cc1CN(C)CCCNC(=O)C1CCN(CC1)Cc1cc(cc(NC(C)C)c1)Nc1nccc-2n1 [Compound 70]	> 10	> 10	9.12	> 10
COc1ccc2cc1CN(C)CCNC(=O)C1CCN(CC1)Cc1cc(cc(NC(C)C)c1)Nc1nccc-2n1 [Compound 75]	> 10	> 10	5.13	> 10
COc1ccc2cc1CN(C)CCCNC(=O)C1CCN(CC1)Cc1cc(Br)cc(c1)Nc1nccc-2n1 [Compound 76]	> 10	> 10	7.24	> 10
COc1ccc2cc1CN(C)CCNC(=O)C1CCN(CC1)Cc1cc(cc(N3CCOCC3)c1)Nc1nccc-2n1 [Compound 77]	> 10	> 10	> 10	> 10
COc1ccc2cc1CN(C)CCCNC(=O)C1CCN(CC1)Cc1cc(cc(N3CCOCC3)c1)Nc1nccc-2n1 [Compound 80]	> 10	> 10	> 10	> 10
COc1ccc2cc1CN(C)CCCNC(=O)C1CCN(CC1)Cc1cccc(c1)Nc1nccc-2n1 [Compound 81]	> 10	> 10	> 10	> 10
COc1ccc2cc1CN(C)CCNC(=O)C1CCN(CC1)Cc1cccc(c1)Nc1nccc-2n1 [Compound 83]	> 10	> 10	> 10	> 10
